Test results as given in patent US20060039883A1, “Biologically active compounds for the modification of bodily odours” (priority 2002, published 2006).

How the values were obtained:
[1] = test system: female sticklebacks; experiment: Flow channel odour preference / mate choice experiment with sticklebacks; assay type: in vivo, Gasterosteus aculeatus
Procedure: The source of sticklebacks has been described (7). The flow channel set-up to evaluate mate choice determines odour preference, as a precursor of mate choice. Water was taken from the tank of a single male per trial and used both as stimulus (after addition of peptide(s)) and control (after addition of solvent) water. Peptides were added to the bottle with stimulus water just before the experiment at a final concentration of 1 mM; this becomes diluted to 5 nM in the water column passing through the test compartment. The following nona-peptides were used, MHC specificities indicated in brackets: […] (H2-K^b); […] and AAPDNRETF (H2-D^b); SYFPEITHI and SYIPSAEKI (H2-K^d). Peptides were synthesized by solid-phase 9-fluorenylmethoxycarbonyl chemistry. In experiments using a single peptide, AAPDNRETF was used. All experiments were performed in double-blinded fashion as described. Statistical analysis was performed with JMP 4.
The binding preferences for peptides of MHC molecules of sticklebacks are unknown; therefore synthetic peptides derived from endogenous mouse and viral proteins that are ligands for different mouse MHC molecules were used. Such peptides almost certainly appear foreign to sticklebacks irrespective of their MHC genotypes. Gravid females prefer water from a tank harbouring a male to that from a tank with fresh water (Experiment A, Table 1). Therefore, it was tested whether addition of peptide(s) to water from individual males would alter the outcome of mate choice. Gravid females were presented with water from single males with and without the addition of a mixture of five different peptides in the two columns of a flow-channel.

[2] = test system: human beings; experiment: Odour evaluation of paired aqueous solutions by test persons (similar or different); assay type: in vivo; conditions: 0.5 mM in phosphate buffered saline
Procedure: Several individuals were asked to evaluate the odour of a number of aqueous solutions. A prototypical MHC class I peptide (SLLPAIVEL), a known ligand of the A′02xx allele, or an equimolar mixture of the corresponding amino acids (S, L, P, A, I, V, E) were added to solvent (phosphate buffered saline) at final concentrations of 0.5 mM. These solutions were offered in pairs and the test persons were asked to decide whether the two solutions smelled similar or different. The probands easily distinguish peptides from amino acids.

[3] = Test pair Peptide vs. Amino acids

Row | Sequence | Time spent on side of water source 2 ([1]; Experiment B, gravid females, Fresh + 1 peptide vs Fresh + solvent, 5 nM in water column, n=24) | Attractiveness of peptide in plain tank water (in words) ([1]; Experiment B, gravid females, plain tank water) | Time spent on side of water source 2 ([1]; Experiment C, gravid females, Male + 1 peptide vs Male + solvent, 5 nM, n=25) | Time spent on side of water source 2 ([1]; Experiment C, gravid females, Male + 1 peptide vs Male + solvent, 5 nM, n=25, listed as one peptide) | Time spent on side of water source 2 ([1]; Experiment E, non-gravid females, Male + 1 peptide vs Male + solvent, 5 nM, n=25) | Preference for male water with vs without peptide (in words) ([1]; Experiment E, non-gravid fish, male water) | Excess time spent on the side of peptide-supplemented male water ([1]; gravid females, male water, excess over 300 sec) | Probands scoring difference [2, 3] | Probands scoring difference (fraction) [2, 3] | Probands scoring difference ([2]; Test pair Peptide vs. Peptide) | Probands scoring difference (fraction) ([2]; Test pair Peptide vs. Peptide)
1 | AAPDNRETF [1 peptide, synthetic nona-peptide, H2-D^b ligand; used in experiments using a single peptide] | 291.8 ± 24.6 s | not attractive | 327.7 ± 24.8 s | 327.7 ± 24.8 s | 308.1 ± 23.5 s | no preference was observed | 27.7 ± 12.4 s |  |  |  | 
2 | SLLPAIVEL [Peptide, prototypical MHC class I peptide, known ligand of the A*02xx allele] |  |  |  |  |  |  |  | 13/14 | (0.93) | 1/14 | (0.07)
